{
  "source": "patent US9403866B2",
  "about": "“Compositions and methods for increasing telomerase activity” (Telomerase Activation Sciences, Inc., priority 2009, dated 2016)",
  "key": {"SAECs": {"tested_on": "SAECs", "assay": "Alamar Blue Proliferation Assay in SAECs", "assay_type": "cell-based, human", "details": "3 days, 1% DMSO, different concentrations", "experimental": "Human SAECs or human fibroblasts were grown in the presence of different concentrations of compound 4 in a final concentration of 1% DMSO in the medium. After 3 days the cells were harvested and proliferation was measured using the Alamar Blue Proliferation Assay."}, "telomerase [1]": {"target": "T1, telomerase (Mus musculus, UniProt O70372)", "T1 construct": "endogenous in cells; host or cells: lineage-depleted bone marrow cells, wild-type mice", "T1 sequence (O70372 1-1122)": "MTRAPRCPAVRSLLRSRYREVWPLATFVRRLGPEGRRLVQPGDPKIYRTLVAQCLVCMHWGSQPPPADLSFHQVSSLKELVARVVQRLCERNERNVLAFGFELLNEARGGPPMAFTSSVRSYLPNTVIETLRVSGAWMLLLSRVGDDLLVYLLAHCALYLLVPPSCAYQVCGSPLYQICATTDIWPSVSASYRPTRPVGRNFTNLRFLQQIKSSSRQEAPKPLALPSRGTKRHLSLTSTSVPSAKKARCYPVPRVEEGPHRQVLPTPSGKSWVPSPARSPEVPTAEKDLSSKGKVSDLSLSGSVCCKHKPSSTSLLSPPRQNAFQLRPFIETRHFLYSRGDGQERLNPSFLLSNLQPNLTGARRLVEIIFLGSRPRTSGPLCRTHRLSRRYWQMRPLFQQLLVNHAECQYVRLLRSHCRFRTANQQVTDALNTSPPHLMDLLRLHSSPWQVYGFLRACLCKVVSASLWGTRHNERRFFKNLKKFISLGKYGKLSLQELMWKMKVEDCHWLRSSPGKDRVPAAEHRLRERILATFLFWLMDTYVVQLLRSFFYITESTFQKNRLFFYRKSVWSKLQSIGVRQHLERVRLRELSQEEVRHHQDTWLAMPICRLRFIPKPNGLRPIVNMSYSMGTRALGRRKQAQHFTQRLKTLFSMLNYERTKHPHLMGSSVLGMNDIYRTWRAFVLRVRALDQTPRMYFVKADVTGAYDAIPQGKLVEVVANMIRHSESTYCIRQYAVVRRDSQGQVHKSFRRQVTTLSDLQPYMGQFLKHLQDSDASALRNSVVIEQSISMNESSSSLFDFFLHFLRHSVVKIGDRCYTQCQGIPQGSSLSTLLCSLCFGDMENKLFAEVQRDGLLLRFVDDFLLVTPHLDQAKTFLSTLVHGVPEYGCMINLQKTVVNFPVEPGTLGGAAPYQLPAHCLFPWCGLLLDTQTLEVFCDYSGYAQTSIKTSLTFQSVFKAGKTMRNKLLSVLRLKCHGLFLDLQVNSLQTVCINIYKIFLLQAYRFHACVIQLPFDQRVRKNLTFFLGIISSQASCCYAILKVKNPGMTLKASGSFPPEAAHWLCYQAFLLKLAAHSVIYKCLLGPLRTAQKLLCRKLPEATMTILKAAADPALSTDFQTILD", "assay": "Telomerase activity in short-term liquid culture, lineage-depleted bone marrow cells from wild type mice", "assay_type": "cell-based", "details": "100 nM and 1 uM, three days", "experimental": "Lineage-depleted bone marrow cells from mTERT heterozygous and wild type mice were grown in IMDM+15% FBS containing stem cell factor (Kitl), IL-3, and IL-11 for three days in the presence of compound 4 (1 uM, 100 nM, or 10 nM), vehicle (0.1% DMSO), or nothing. Telomerase activity in the wild-type cells increased by 40-50% when treated with 100 nM and 1 uM compound 4, relative to the vehicle-treated control."}, "telomerase [2]": {"target": "telomerase (Homo sapiens, UniProt O14746)", "sequence (O14746 whole entry)": "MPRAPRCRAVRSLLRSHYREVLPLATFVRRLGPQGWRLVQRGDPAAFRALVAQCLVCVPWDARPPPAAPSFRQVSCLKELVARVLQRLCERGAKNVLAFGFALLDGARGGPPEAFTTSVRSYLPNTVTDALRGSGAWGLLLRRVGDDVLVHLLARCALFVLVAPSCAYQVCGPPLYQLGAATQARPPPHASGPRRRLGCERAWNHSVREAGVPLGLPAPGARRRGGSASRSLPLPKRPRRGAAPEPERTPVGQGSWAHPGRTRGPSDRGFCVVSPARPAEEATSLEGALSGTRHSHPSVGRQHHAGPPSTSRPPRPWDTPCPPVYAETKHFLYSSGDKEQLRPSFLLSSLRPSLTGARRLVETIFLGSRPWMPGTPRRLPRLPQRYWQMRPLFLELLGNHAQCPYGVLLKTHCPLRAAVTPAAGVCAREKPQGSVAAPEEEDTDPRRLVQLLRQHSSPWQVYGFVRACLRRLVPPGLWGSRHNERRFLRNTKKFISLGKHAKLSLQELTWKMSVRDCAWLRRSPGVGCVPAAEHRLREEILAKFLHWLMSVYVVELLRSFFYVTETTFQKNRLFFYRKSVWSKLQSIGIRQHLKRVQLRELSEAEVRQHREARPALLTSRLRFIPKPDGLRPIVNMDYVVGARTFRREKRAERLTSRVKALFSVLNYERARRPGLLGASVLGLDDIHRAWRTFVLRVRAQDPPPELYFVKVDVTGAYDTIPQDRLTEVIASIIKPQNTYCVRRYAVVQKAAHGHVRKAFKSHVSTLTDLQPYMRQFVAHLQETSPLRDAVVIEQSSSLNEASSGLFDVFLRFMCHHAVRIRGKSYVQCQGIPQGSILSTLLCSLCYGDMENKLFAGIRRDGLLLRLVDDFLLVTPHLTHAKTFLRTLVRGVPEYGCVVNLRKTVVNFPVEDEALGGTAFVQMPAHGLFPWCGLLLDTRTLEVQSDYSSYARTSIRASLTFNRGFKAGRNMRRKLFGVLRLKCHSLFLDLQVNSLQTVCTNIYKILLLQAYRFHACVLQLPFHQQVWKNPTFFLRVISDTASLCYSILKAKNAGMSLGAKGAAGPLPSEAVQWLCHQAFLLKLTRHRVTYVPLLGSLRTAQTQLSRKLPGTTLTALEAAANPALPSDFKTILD", "assay": "Telomerase activation in short-term liquid culture of human bone marrow-derived CD34+ hematopoietic progenitor cells (gel-TRAP)", "assay_type": "cell-based", "details": "huCD34+ cells, 100 nM, 3 days", "experimental": "Human bone marrow-derived CD34+ hematopoietic progenitor cells were obtained from a healthy donor.\nHuman bone marrow-derived CD34+ hematopoietic progenitor cells were grown in Iscove's Modified Dulbecco's Medium (IMDM) (Invitrogen, CA)+10% fetal bovine serum (FBS) for 3 days in the presence of compound 4 (1 uM, 100 nM, 10 nM), vehicle (1% DMSO), or nothing. Telomerase activity increased by ˜60-70% in the 100 nM compound 4 sample relative to the vehicle control (as assessed by traditional gel-TRAP assay)."}},
  "data": [
    {"smiles": "CC(C)C(N)C(=O)OC1CCC23CC24CCC2(C)C(C5(C)CCC(C(C)(C)O)O5)C(O)CC2(C)C4CC(O)C3C1(C)C", "note": "(stereo not drawn) [Compound 4, 2-(L)-Amino-3-methyl-butyric acid 6α,16β-dihydroxy-17-[5-(1-hydroxy-1-methyl-ethyl)-2-methyl-tetrahydro-furan-2-yl]-4,4,13,14-tetramethyl-tetradecahydro-cyclopropa[9,10]cyclopenta[a]phenanthren-3β-yl ester]", "values": [
      {"measurement": "increased proliferation", "setting": "SAECs", "value": "about 50%"},
      {"measurement": "Telomerase activity increase relative to the vehicle-treated control", "setting": "telomerase [1]", "value": "40-50%"},
      {"measurement": "Telomerase activity increase relative to the vehicle control", "setting": "telomerase [2]", "value": "60-70%"}
    ]}
  ]
}
